Each structure is given as a SMILES string.

One series can be described thus: method code SF-AS, from DOI: 10.1128/aac.27.1.84, PMID: 2580479.
Details: not given
Broadly, the logP is the decadic logarithm of the partition coefficient of the neutral form, usually between octanol and water. The low end stands for a more hydrophilic compound, the high end for a more lipophilic compound. Compound `CC(=O)OCC1=C(C(=O)O)N2C(=O)[C@@H](NC(=O)CC#N)[C@H]2SC1` gave a log partition coefficient (logP) of -0.45. Still for that read-out and setting: with `CCN1CCN(C(=O)N[C@@H](C(=O)N[C@@H]2C(=O)N3C(C(=O)O)=C(CSc4nnnn4C)CS[C@H]23)c2ccc(O)cc2)C(=O)C1=O` the figure was -0.74; with `CO[C@@]1(NC(=O)Cc2cccs2)C(=O)N2C(C(=O)O)=C(COC(N)=O)CS[C@@H]21`, -0.02; with `CCN1CCN(C(=O)N[C@@H](C(=O)N[C@@H]2C(=O)N3[C@@H]2SC(C)(C)[C@@H]3C(=O)O)c2ccccc2)C(=O)C1=O`, 0.5.

Still in this series, the particulars now being: pH 2.0.
One may read the logD as lipophilicity at a set pH, counting ionised and neutral species. The low end stands for a more hydrophilic compound, the high end for a more lipophilic compound. For `Cn1nnnc1SCC1=C(C(=O)O)N2C(=O)[C@@H](NC(=O)CSCC#N)[C@H]2SC1`, the logD was -0.62.

Assay in another series: not given
Details: not given
Compound `COC(=O)c1ccccc1S(=O)(=O)NC(=O)Nc1nc(C)cc(C)n1` displayed a logP of 1.3. Compound `O=C(O)CCCCOc1cccc2ccccc12` came in with a logP of 4. Still for that read-out and setting: with `O=C(O)CCCOc1cccc2ccccc12` the figure was 3.5; with `OCCOc1cccc2ccccc12`, 2.5. On the same count and under the same terms, with `O=C(O)CCCCCOc1cccc2ccccc12` the figure was 4.5.

Assay in a further series: not given
Details: not given
The source holds these as a separate data set.
The compound `CN1CCN(CCCN2c3ccccc3Sc3ccc(Cl)cc32)CC1` gave a logP of 4.79. The same measure, in the same setting: with `CC(NCCC(c1ccccc1)c1ccccc1)c1ccccc1` (centres undefined) the figure was 4.89; with `CCSc1ccc2c(c1)N(CCCN1CCN(C)CC1)c1ccccc1S2`, 4.82. Still for that read-out and setting: the result for `COc1ccc2c(c1)N(CC(C)CN(C)C)c1ccccc1S2` (centres undefined) reads 4.4. Take `OCCN1CCN(CCCN2c3ccccc3Sc3ccc(Cl)cc32)CC1`: the logP worked out at 4.25.

Assay in a further series: not given
Details: not given
This is another data set of the same source.
On to `COc1ccc(OC(=O)C2OC(O)C(O)C(O)C2O)cc1` (centres undefined), for which the logP was -0.01. Same read-out and setting: the result for `O=C(Oc1ccc(-c2ccccc2)cc1)C1OC(O)C(O)C(O)C1O` (centres undefined) reads 1.79; that for `Cc1ccc(OC(=O)C2OC(O)C(O)C(O)C2O)cc1` (centres undefined), 0.37; that for `O=C(Oc1ccccc1)C1OC(O)C(O)C(O)C1O` (centres undefined), -0.69. Still for that read-out and setting: the result for `O=C(Oc1ccc2cc(Br)ccc2c1)C1OC(O)C(O)C(O)C1O` (centres undefined) reads 1.97.

The next series can be described thus: method code SF-AS, from PMID: 10944786. The settings on record: pH 7.0.
Consider `CCCOc1cccc(NC(=O)OCN2CCCCC2)c1`, for which the logD was 2.6. Take `CCCCOc1ccccc1NC(=O)OCN1CCCCC1`: the logD worked out at 2.39. On the same count and under the same terms, the result for `CCCCOc1ccc(NC(=O)OCN2CCCCC2)cc1` reads 3.04; that for `CCCOc1ccccc1NC(=O)OCN1CCCCC1`, 2.33.

Regarding `CCCOc1ccc(NC(=O)OCN2CCCCC2)cc1`, the logD came to 2.42.

A short description of a further series: method code SF, from Yoshimoto, M. (1982). Quantitative structure-activity relationships and structure patterns of drugs. SankyoÌ„ KenkyuÌ„jo nenpoÌ„ (Annual report of Sankyo Research Laboratories), 34, 1-38.
Details: not given
The compound `COC1(NC(=O)CSc2nnc(C)s2)C(=O)N2C(C(=O)O)=C(COC(N)=O)CSC21` (centres undefined) yielded a logP of -2.16. On the same count and under the same terms, the result for `CCCCSCC(=O)NC1(OC)C(=O)N2C(C(=O)O)=C(COC(N)=O)CSC21` (centres undefined) reads -1.57. The same measure, in the same setting: with `COC1(NC(=O)CSc2[nH]cnc3ncnc2-3)C(=O)N2C(C(=O)O)=C(COC(N)=O)CSC21` (centres undefined) the figure was -1.99.

In turn, `CCCSCC(=O)NC1(OC)C(=O)N2C(C(=O)O)=C(COC(N)=O)CSC21` (centres undefined) came in with a logP of -1.76. On the same count and under the same terms, with `CCCCCSCC(=O)NC1(OC)C(=O)N2C(C(=O)O)=C(COC(N)=O)CSC21` (centres undefined) the figure was -1.31.

The nature of another series: method code SF-AS, from DOI: 10.1021/jm00253a014, PMID: 4151967. The settings on record: pH 7.4.
For the compound `CCn1c(C)c(COC(=O)NCCO)c2c1C(=O)C(C)=C(OC)C2=O`, the logD is 1.64. `COC1=C(C)C(=O)c2c(c(COC(N)=O)c3n2CCC3OC(C)=O)C1=O` (centres undefined): the logD was found to be 1.54.

In turn, `COC1=C(C)C(=O)c2c(c(COC(N)=O)c3n2CCC3)C1=O` yielded a pH-dependent lipophilicity (logD) of 1.71. Still for that read-out and setting: the result for `CC1=C(N)C(=O)c2c(COC(N)=O)c3n(c2C1=O)CCC3O` (centres undefined) reads 0.64.

`CCn1c(C)c(COC(N)=O)c2c1C(=O)C(C)=C(OC)C2=O` displayed a logD of 1.81.

The next series is described as follows: method code SF-HPLC, from PMID: 9554875. The settings on record: pH 6.8.
`Cc1ccc2c(c1)COP(=O)(OCC1C=CC(n3cc(C)c(=O)[nH]c3=O)O1)O2` (centres undefined) yielded a logD of 0.73.

For `COc1ccc2c(c1)COP(=O)(OCC1C=CC(n3cc(C)c(=O)[nH]c3=O)O1)O2` (centres undefined), the logD is 0.36. The same measure, in the same setting: the result for `Cc1cc(C)c2c(c1)COP(=O)(OCC1C=CC(n3cc(C)c(=O)[nH]c3=O)O1)O2` (centres undefined) reads 1.18; that for `Cc1cccc2c1OP(=O)(OCC1C=CC(n3cc(C)c(=O)[nH]c3=O)O1)OC2` (centres undefined), 0.71.

Take `Cc1cn(C2C=CC(COP3(=O)OCc4ccccc4O3)O2)c(=O)[nH]c1=O` (centres undefined): the pH-dependent lipophilicity (logD) worked out at 0.28.

Assay in the next series: not given
Details: not given
The source holds these as a separate data set.
Compound `c1ccc2cc3cc4ccccc4cc3cc2c1` had a logP of 5.76. Same read-out and setting: the result for `c1ccc2cc3cc4c(ccc5ccccc54)cc3cc2c1` reads 6.81; that for `Cc1cccc2c1ccc1ccccc12`, 5.08; that for `CCc1ccc2cc3ccccc3cc2c1`, 5.85. Take `Cc1ccc2c(ccc3ccccc32)c1`: the log partition coefficient (logP) worked out at 5.24.

Assay in another series: not given
Details: not given
This is another data set of the same source.
Regarding `c1cn(C23CC4CC(CC(C4)C2)C3)cn1`, the logP worked out at 2.9. Compound `c1ccc2nn(C34CC5CC(CC(C5)C3)C4)nc2c1` gave a logP of 4.3. `c1cnn(C23CC4CC(CC(C4)C2)C3)c1`: the logP amounted to 3.05.

Regarding `c1ccc2c(c1)cnn2C12CC3CC(CC(C3)C1)C2`, the lipophilicity (logP) is 4.33. Same read-out and setting: the result for `c1ccc2c(c1)ncn2C12CC3CC(CC(C3)C1)C2` reads 3.64.

The next series in a line: method code SF-AS, from Jha, T.; Debnath, A.; Mazumdar, A.; Sengupta, C.; De, A. (1986). Hansch analysis of antineoplastic agents, 5-N-substituted-2-p-substituted benzenesulfonyl-L-glutamines. Ind. J. Chem., Sect. B, ….
Details: not given
For `Cc1ccc(S(=O)(=O)NC(CCC(=O)NC2CCCCC2)C(=O)O)cc1` (centres undefined), the logP was 0.32. The same measure, in the same setting: with `CCNC(=O)CCC(NS(=O)(=O)c1ccccc1)C(=O)O` (centres undefined) the figure was 0.38; with `CCCCCNC(=O)CCC(NS(=O)(=O)c1ccccc1)C(=O)O` (centres undefined), -0.16. Still for that read-out and setting: with `CCCNC(=O)CCC(NS(=O)(=O)c1ccccc1)C(=O)O` (centres undefined) the figure was -0.08. `CCCCCCNC(=O)CCC(NS(=O)(=O)c1ccc(C)cc1)C(=O)O` (centres undefined) yielded a logP of 0.92.

Assay in another series: not given
Details: not given
This is another data set of the same source.
The compound `Cc1c(Cl)ccc(Cc2ccc(Cl)cc2Cl)c1Cl` registered a logP of 6.85. Same read-out and setting: with `Cc1c(Cl)ccc(Cc2c(Cl)cccc2Cl)c1Cl` the figure was 6.58; with `Cc1cc(Cc2ccc(Cl)cc2Cl)c(Cl)cc1Cl`, 6.77. The compound `Cc1cc(Cl)c(Cl)cc1Cc1c(Cl)cccc1Cl` gave a logP of 6.03. Take `Cc1cc(Cc2c(Cl)cccc2Cl)c(Cl)cc1Cl`: the logP stood at 6.53.

Assay in the next series: not given
Details: not given
The source holds these as a separate data set.
Regarding `COc1cc(Cl)ccc1Cn1nc(-c2sc(NC(=O)C(C)(C)C)nc2C)cc1C(=O)N1CCOCC1`, the logP worked out at 4.1.

`C=CCn1nc(-c2sc(NC(=O)C(C)(C)C)nc2C)cc1C(=O)Nc1ccc(OC)cc1` displayed a logP of 4.55. Turning to `COc1ccc(NC(=O)c2cc(-c3sc(NC(=O)C(C)(C)C)nc3C)nn2Cc2ccc(Cl)cc2OC)cc1`, the logP amounted to 5.33. On the same count and under the same terms, with `Cc1nc(NC(=O)C(C)(C)C)sc1-c1cc(C(=O)NCc2ccccc2)n(Cc2ccccc2)n1` the figure was 4.82.

A short description of the next series: method code SF-HPLC, from PMID: 2780588.
Details: not given
With `COc1cc(CNC(=O)CCCC/C=C/C(C)C)ccc1O`, the logP was 3.04. The same measure, in the same setting: with `CCCCCCCCC(=O)NCc1ccc(O)c(OC)c1` the figure was 2.96; with `CCCCCNC(=O)Cc1ccc(O)c(OC)c1`, 1.67; with `CCCCCCCCCCCNC(=O)Cc1ccc(O)c(OC)c1`, 3.74. Still for that read-out and setting: the result for `CCCCCCCCC(=O)NCc1cccc(OC)c1` reads 3.31.

The next series in a line: method code SF-AS, from DOI: 10.1002/chin.199416148, PMID: 8117185.
Details: not given
In turn, `CC(C(=O)CCN1CCCCC1)N1C(=O)C2CC=CCC2C1=O` (centres undefined) gave a logP of 1.55. For `O=C(CCN1CCCCC1)CN1C(=O)c2ccccc2C1=O`, the logP is 0.86.

In the case of `O=C(CCN1CCCCC1)CN1C(=O)C2CC=CCC2C1=O` (centres undefined), the logP came to 1.44. Still for that read-out and setting: the result for `O=C(CCN1CCCCC1)CN1C(=O)CC(c2ccc(Cl)cc2)C1=O` (centres undefined) reads 2.23; that for `CC(C(=O)CCN(C)C)N1C(=O)C2CC=CCC2C1=O` (centres undefined), 0.77.
